Test results reported in patent US11439707B2, “Hypocrellin derivative substituted both in a peri-position and in 2-position by amino, preparation method, and application thereof” (priority 2017, dated 2022).

Experiments:
[1] = singlet oxygen efficiency test, reference rose bengal; assay type: physicochemical
[2] = absorption spectrum (maximum absorption wavelength, molar extinction coefficient); assay type: physicochemical

SMILES: COCCOCCOCCOCCOCCOCCOCCOCCOCCOCCOCCOCCOCCC(=O)OC1CCC(Nc2c3c4c5c(c(OC)c(=O)c6c(O)cc(OC)c(c7c(OC)cc(NC8CCC(OC(=O)CCOCCOCCOCCOCCOCCOCCOCCOCCOCCOCCOCCOCCOC)C8)c(c2=O)c74)c65)C(C(C)=O)C(C)=C3)C1 (stereo not drawn) [HB-20c-PEG12]
- singlet oxygen yield [1]: 34%
- maximum absorption wavelength [2]: 632 nm
- molar extinction coefficient [2]: 32,500 M^−1cm^−1

SMILES: COc1c2c3c4c(c(NC5CCC(O)CC5)c(=O)c5c(NC6CCC(O)CC6)cc(OC)c(c6c(OC)cc(O)c(c1=O)c63)c54)C=C(C)C2C(C)=O (stereo not drawn) [HB-17c]
- singlet oxygen yield [1]: 23%
- maximum absorption wavelength [2]: 622 nm
- molar extinction coefficient [2]: 26,000 M^−1cm^−1

SMILES: COc1c2c3c4c(c(NCC5CCC(C(=O)NCCCCCCS(=O)(=O)O)CC5)c(=O)c5c(NCC6CCC(C(=O)NCCCCCCS(=O)(=O)O)CC6)cc(OC)c(c6c(OC)cc(O)c(c1=O)c63)c54)C=C(C)C2 (stereo not drawn) [HC-13c-C6-SO3H]
- singlet oxygen yield [1]: 36%
- maximum absorption wavelength [2]: 630 nm
- molar extinction coefficient [2]: 33,000 M^−1cm^−1

SMILES: COc1c2c3c4c(c(NCc5ccccn5)c(=O)c5c(NCc6ccccn6)cc(OC)c(c6c(OC)cc(O)c(c1=O)c63)c54)C=C(C)C2C(C)=O (stereo not drawn) [HB-38c]
- singlet oxygen yield [1]: 18%
- maximum absorption wavelength [2]: 628 nm
- molar extinction coefficient [2]: 20,000 M^−1cm^−1

SMILES: COc1c2c3c4c(c(NO)c(=O)c5c(NO)cc(OC)c(c6c(OC)cc(O)c(c1=O)c63)c54)C=C(C)C2 [HC-37c]
- singlet oxygen yield [1]: 36%
- maximum absorption wavelength [2]: 624 nm
- molar extinction coefficient [2]: 34,000 M^−1cm^−1

SMILES: COc1c2c3c4c(c(NC(C(=O)O)C(C)C)c(=O)c5c(NC(C(=O)O)C(C)C)cc(OC)c(c6c(OC)cc(O)c(c1=O)c63)c54)C=C(C)C2C(C)=O (stereo not drawn) [HB-22c]
- singlet oxygen yield [1]: 22%
- maximum absorption wavelength [2]: 620 nm
- molar extinction coefficient [2]: 21,500 M^−1cm^−1

SMILES: CCCCCCNc1c2c3c4c(c(OC)c(=O)c5c(NCCCCCC)cc(OC)c(c6c(OC)cc(O)c(c1=O)c63)c54)CC(C)=C2 [HC-34d]
- singlet oxygen yield [1]: 32%
- maximum absorption wavelength [2]: 628 nm
- molar extinction coefficient [2]: 32,000 M^−1cm^−1

SMILES: COc1c2c3c4c(c(NC(CO)C(=O)O)c(=O)c5c(NC(CO)C(=O)O)cc(OC)c(c6c(OC)cc(O)c(c1=O)c63)c54)C=C(C)C2C(C)=O (stereo not drawn) [HB-23c]
- singlet oxygen yield [1]: 22%
- maximum absorption wavelength [2]: 622 nm
- molar extinction coefficient [2]: 22,000 M^−1cm^−1

SMILES: COc1c2c3c4c(c(NCCC(=O)O)c(=O)c5c(O)cc(OC)c(c6c(OC)cc(NCCC(=O)O)c(c1=O)c63)c54)C=C(C)C2C(C)=O (stereo not drawn) [HB-10d]
- singlet oxygen yield [1]: 32%
- maximum absorption wavelength [2]: 621 nm
- molar extinction coefficient [2]: 32,500 M^−1cm^−1

SMILES: COc1c(O)c2c(=O)cc(OC)c3c4c(OC)cc(=O)c5c(NCC6CCC(C(=O)O)CC6)c(NCC6CCC(C(=O)O)CC6)c6c(c(c1C(C(C)=O)C(C)=C6)c23)c54 (stereo not drawn) [HB-13a]
- singlet oxygen yield [1]: 28%
- maximum absorption wavelength [2]: 621 nm
- molar extinction coefficient [2]: 28,500 M^−1cm^−1

SMILES: COc1c(O)c2c(=O)cc(OC)c3c4c(OC)cc(=O)c5c(NCCOCCO)c(NCCOCCO)c6c(c(c1CC(C)=C6)c23)c54 [HC-1a]
- singlet oxygen yield [1]: 36%
- maximum absorption wavelength [2]: 628 nm
- molar extinction coefficient [2]: 28,000 M^−1cm^−1

SMILES: COCCOCCOCCOCCOCCOCCOC(=O)C1CCCCC1Nc1c(O)c2c(=O)cc(OC)c3c4c(OC)cc(=O)c5c(NC6CCCCC6C(=O)OCCOCCOCCOCCOCCOCCOC)c(OC)c6c(c(c1C=C(C)C6C(C)=O)c23)c54 (stereo not drawn) [HB-16b-PEG6]
- singlet oxygen yield [1]: 32%
- maximum absorption wavelength [2]: 624 nm
- molar extinction coefficient [2]: 30,500 M^−1cm^−1

SMILES: COc1c(O)c2c(=O)cc(OC)c3c4c(OC)cc(=O)c5c(NCCO)c(NCCO)c6c(c(c1CC(C)=C6)c23)c54 [HC-2a]
- singlet oxygen yield [1]: 32%
- maximum absorption wavelength [2]: 627 nm
- molar extinction coefficient [2]: 28.500 M⁻¹ cm⁻¹

SMILES: COc1c(NCCCC(=O)O)c2c(=O)cc(OC)c3c4c(OC)cc(=O)c5c(O)c(NCCCC(=O)O)c6c(c(c1C(C(C)=O)C(C)=C6)c23)c54 (stereo not drawn) [HB-8b]
- singlet oxygen yield [1]: 26%
- maximum absorption wavelength [2]: 618 nm
- molar extinction coefficient [2]: 28,500 M^−1cm^−1

SMILES: COc1c(O)c2c(=O)cc(OC)c3c4c(OC)cc(=O)c5c(NCCCC(=O)O)c(NCCCC(=O)O)c6c(c(c1CC(C)=C6)c23)c54 [HC-8a]
- singlet oxygen yield [1]: 26%
- maximum absorption wavelength [2]: 620 nm
- molar extinction coefficient [2]: 28,500 M^−1cm^−1

SMILES: CCNNc1c2c3c4c(c(OC)c(=O)c5c(O)cc(OC)c(c6c(OC)cc(NNCC)c(c1=O)c63)c54)C(C(C)=O)C(C)=C2 (stereo not drawn) [HB-36c]
- singlet oxygen yield [1]: 35%
- maximum absorption wavelength [2]: 621 nm
- molar extinction coefficient [2]: 33,500 M^−1cm^−1

SMILES: COCCOCCC(=O)N1CCC(CNc2c(NCC3CCN(C(=O)CCOCCOC)CC3)c3c(=O)c(Br)c(OC)c4c5c(OC)cc(=O)c6c(O)c(OC)c7c(c(c2C=C(C)C7C(C)=O)c34)c65)CC1 (stereo not drawn) [HB-31a-Br-PEG1]
- singlet oxygen yield [1]: 33%
- maximum absorption wavelength [2]: 624 nm
- molar extinction coefficient [2]: 32,000 M^−1cm^−1

SMILES: COc1c(NCS(=O)(=O)O)c2c(=O)cc(OC)c3c4c(OC)cc(=O)c5c(O)c(NCCCS(=O)(=O)O)c6c(c(c1CC(C)=C6)c23)c54 [HC-45b]
- singlet oxygen yield [1]: 20%
- maximum absorption wavelength [2]: 618 nm
- molar extinction coefficient [2]: 21,500 M^−1cm^−1

SMILES: COc1c(O)c2c(=O)cc(OC)c3c4c(OC)cc(=O)c5c(NCS(=O)(=O)O)c(NCCCS(=O)(=O)O)c6c(c(c1CC(C)=C6)c23)c54 [HC-45a]
- singlet oxygen yield [1]: 18%
- maximum absorption wavelength [2]: 613 nm
- molar extinction coefficient [2]: 21,000 M^−1cm^−1

SMILES: COCCOCCOCCOCCOCCOCCOCCOCCOCCNC(=O)C1CCC(CNc2c3c4c5c(c(OC)c(=O)c6c(NCC7CCC(C(=O)NCCOCCOCCOCCOCCOCCOCCOCCOCCOC)CC7)cc(OC)c(c7c(OC)cc(O)c(c2=O)c74)c65)CC(C)=C3)CC1 (stereo not drawn) [HC-13d-NH-PEG8]
- singlet oxygen yield [1]: 30%
- maximum absorption wavelength [2]: 625 nm
- molar extinction coefficient [2]: 32,500 M^−1cm^−1

SMILES: COCCOC(=O)C1CCC(Nc2c(NC3CCC(C(=O)OCCOC)C3)c3c(=O)cc(OC)c4c5c(OC)cc(=O)c6c(O)c(OC)c7c(c(c2C=C(C)C7C(C)=O)c34)c65)C1 (stereo not drawn) [HB-19a-PEG1]
- singlet oxygen yield [1]: 32%
- maximum absorption wavelength [2]: 624 nm
- molar extinction coefficient [2]: 30,500 M^−1cm^−1

SMILES: CCNNc1c2c3c4c(c(OC)c(=O)c5c(NNCC)cc(OC)c(c6c(OC)cc(O)c(c1=O)c63)c54)C(C(C)=O)C(C)=C2 (stereo not drawn) [HB-36d]
- singlet oxygen yield [1]: 32%
- maximum absorption wavelength [2]: 621 nm
- molar extinction coefficient [2]: 32,000 M^−1cm^−1

SMILES: CCNc1c(NC2CCCC2)c2c(=O)cc(OC)c3c4c(OC)cc(=O)c5c(O)c(OC)c6c(c(c1C=C(C)C6C(C)=O)c23)c54 (stereo not drawn) [HB-44a]
- singlet oxygen yield [1]: 20%
- maximum absorption wavelength [2]: 628 nm
- molar extinction coefficient [2]: 21,500 M^−1cm^−1

SMILES: COc1c2c3c4c(c(NCCNCCOCCOCCOCCOCCO)c(=O)c5c(NCCNCCOCCOCCOCCOCCO)cc(OC)c(c6c(OC)cc(O)c(c1=O)c63)c54)C=C(C)C2C(C)=O (stereo not drawn) [HB-5c-PEG4]
- singlet oxygen yield [1]: 35%
- maximum absorption wavelength [2]: 628 nm
- molar extinction coefficient [2]: 31,500 M^−1cm^−1

SMILES: COCCOCCN1C(=O)CN(C(=O)OCCNc2c(NCCOC(=O)N3CC(=O)N(CCOCCOC)C(=O)C3)c3c(=O)cc(OC)c4c5c(OC)cc(=O)c6c(O)c(OC)c7c(c(c2C=C(C)C7C(C)=O)c34)c65)CC1=O (stereo not drawn) [HB-40a-PEG1]
- singlet oxygen yield [1]: 32%
- maximum absorption wavelength [2]: 624 nm
- molar extinction coefficient [2]: 31,500 M^−1cm^−1

SMILES: CCCNc1c(NCCC)c2c(=O)cc(OC)c3c4c(OC)cc(=O)c5c(O)c(OC)c6c(c(c1C=C(C)C6C(C)=O)c23)c54 (stereo not drawn) [HB-33a]
- singlet oxygen yield [1]: 30%
- maximum absorption wavelength [2]: 618 nm
- molar extinction coefficient [2]: 32,500 M^−1cm^−1

SMILES: COCCOCCOCCOCCOC(=O)C1CCC(CNc2c3c4c5c(c(OC)c(=O)c6c(O)cc(OC)c(c7c(OC)cc(NCC8CCC(C(=O)OCCOCCOCCOCCOC)CC8)c(c2=O)c74)c65)CC(C)=C3)CC1 (stereo not drawn) [HC-13c-PEG4]
- singlet oxygen yield [1]: 36%
- maximum absorption wavelength [2]: 632 nm
- molar extinction coefficient [2]: 31,500 M^−1cm^−1

SMILES: COCCOCCOCCOCCOCCOCCOCCOCCOCCOCCOCCOCCOCCN1CCC(CNc2c3c4c5c(c(OC)c(=O)c6c(NCC7CCN(CCOCCOCCOCCOCCOCCOCCOCCOCCOCCOCCOCCOCCOC)CC7)cc(OC)c(c7c(OC)cc(O)c(c2=O)c74)c65)C(C(C)=O)C(C)=C3)CC1 (stereo not drawn) [HB-32d-PEG12]
- singlet oxygen yield [1]: 33%
- maximum absorption wavelength [2]: 632 nm
- molar extinction coefficient [2]: 31,500 M^−1cm^−1

SMILES: COc1c(O)c2c(=O)cc(OC)c3c4c(OC)c(Br)c(=O)c5c(NCCNCCOCCO)c(NCCNCCOCCO)c6c(c(c1C(C(C)=O)C(C)=C6)c23)c54 (stereo not drawn) [HB-5a-Br-PEG1]
- singlet oxygen yield [1]: 28%
- maximum absorption wavelength [2]: 622 nm
- molar extinction coefficient [2]: 30,500 M^−1cm^−1

SMILES: COc1c(O)c2c(=O)cc(OC)c3c4c(OC)cc(=O)c5c(NCC(=O)O)c(NCC(=O)O)c6c(c(c1CC(C)=C6)c23)c54 [HC-7a]
- singlet oxygen yield [1]: 28%
- maximum absorption wavelength [2]: 620 nm
- molar extinction coefficient [2]: 27,500 M^−1cm^−1

SMILES: COc1c2c3c4c(c(NCCS(=O)(=O)OC)c(=O)c5c(O)cc(OC)c(c6c(OC)cc(NCCS(=O)(=O)OC)c(c1=O)c63)c54)C=C(C)C2C(C)=O (stereo not drawn) [HB-12d]
- singlet oxygen yield [1]: 21%
- maximum absorption wavelength [2]: 624 nm
- molar extinction coefficient [2]: 21,500 M^−1cm^−1

SMILES: COc1c2c3c4c(c(NCc5cccc[n+]5CCCC(=O)O)c(=O)c5c(NCc6cccc[n+]6CCCC(=O)O)cc(OC)c(c6c(OC)cc(O)c(c1=O)c63)c54)C=C(C)C2C(C)=O (stereo not drawn) [HB-38c-N—COOH]
- singlet oxygen yield [1]: 21%
- maximum absorption wavelength [2]: 622 nm
- molar extinction coefficient [2]: 21,500 M^−1cm^−1

SMILES: COc1c2c3c4c(c(NCC5CCC(C(=O)NCCCC[P+](c6ccccc6)(c6ccccc6)c6ccccc6)CC5)c(=O)c5c(O)cc(OC)c(c6c(OC)cc(NCC7CCC(C(=O)NCCCC[P+](c8ccccc8)(c8ccccc8)c8ccccc8)CC7)c(c1=O)c63)c54)C=C(C)C2 (stereo not drawn) [HC-13d-NH—C4-PPh3+]
- singlet oxygen yield [1]: 30%
- maximum absorption wavelength [2]: 618 nm
- molar extinction coefficient [2]: 31,500 M^−1cm^−1

SMILES: COc1c(NCC(=O)O)c2c(=O)cc(OC)c3c4c(OC)cc(=O)c5c(O)c(NCC(=O)O)c6c(c(c1CC(C)=C6)c23)c54 [HC-7b]
- singlet oxygen yield [1]: 25%
- maximum absorption wavelength [2]: 622 nm
- molar extinction coefficient [2]: 28,500 M^−1cm^−1
